Values quoted from earlier work as cited in patent publication US20070293479A1, “OLANZAPINE PHARMACEUTICAL COMPOSITION” (priority 2006, published 2007).

Details: free base, at pH 6.8

## Cc1cc2c(s1)Nc1ccccc1N=C2N1CCN(C)CC1 [Olanzapine]
  solubility: about 0.02 mg/ml
